Measured values as given in PMC8728441, “Biosynthesis of the redox cofactor mycofactocin is controlled by the transcriptional regulator MftR and induced by long-chain acyl-CoA species” (The Journal of Biological Chemistry, 2021).

Columns and labels:
MftR–Omft complex = test: Competitive EMSA screen for effectors of MftR; format: binding, Mycobacterium smegmatis mc^2155; details: 6-FAM Omft 0.5 μM, MftR 5 μM, effectors 100 μM
Procedure: Next, we assessed which metabolites activate MftR and thus could induce MFT production. To do so, we carried out competitive EMSAs where FAM-labeled Omft and MftR were incubated in the presence of potential effectors. We initially chose our effectors based on cholesterol catabolism, a process that putatively includes MFT biosynthetic genes ([38]). […] Knowing that TFRs have a propensity to be activated by fatty acyl-CoAs ([20]), we expanded our effector screening to include short-chain, medium-chain, and long-chain acyl-CoAs.
Figure 4 Effectors of MftR.A, an EMSA used to screen effectors of MftR. The 6-FAM–labeled Omft region (0.5 μM) was incubated with the MftR (5 μM) in the absence or the presence of effectors (100 μM). Protein–DNA complexes were separated by electrophoresis on 5% polyacrylamide gel. […] B, a representative isothermal titration calorimetry thermogram for the binding of the oleoyl-CoA to MftR regulator (blue) and the control of oleoyl-CoA into buffer (red). Each peak corresponds to the injection of 2.22 μl of 250 μM oleoyl-CoA into the cell containing 16 μM MftR or buffer. The integrated thermogram (blue dots) was fitted to a single-site binding model (black line) to determine the Kd. […] C, a bar graph depicting the ITC measured Kds for various acyl-CoAs. Bars represent the mean of three independent experiments, and the error bars represent the standard deviation of the experiments. 6-FAM, 6-carboxyfluorescein; ITC, isothermal titration calorimetry; Omft, mft operator.
His-tagged MftR was used to assess the protein binding to Pmft–MftA promoter fragment. DNA was mixed with increasing concentrations of the MftR protein in the reaction buffer (50 mM Hepes, 50 mM NaCl 0.1 mM EDTA, and pH 7.5) and incubated at room temperature for 10 min. The reactions were resolved by electrophoresis on a 5% (v/v) nondenaturing polyacrylamide gel in 1× Tris/borate/EDTA buffer at 200 V for 20 min on ice. Prior to the analysis, the gel was prerun for 30 min at 150 V on ice. Results were visualized by GelRed and recorded using Azure Biosystems 600 imaging system.

MftR D16R = test: ITC binding of oleoyl-CoA to MftR variant; set-up: species or system Mycobacterium smegmatis mc^2155; details: ND = not detected
Source text: (§1) Next, we examined which amino acid residues contribute to the interaction between MftR and oleoyl-CoA. The crystal structure of Msmeg MftR is currently unavailable; however, an unpublished structure of Rhodococcus jostii RHA1 MftR has been deposited in the Protein Data Bank (PDB) (PDB ID: 2RAE, 54% identical, Fig. S3). Using this structure, we employed SwissDock to model oleoyl-CoA bound to MftR (Fig. 5) ([41], [42]). From the docked structure, we identified eight conserved residues on MftR that were expected to create the acyl-binding pocket or bind CoA through electrostatic interactions. Following single amino acid replacements of the residues, we measured the Kd values of the mutant proteins to oleoyl-CoA using ITC. For the putative acyl-binding pocket residues Phe65, Phe96, and Ile114, mutations to alanine led to no or modest change to the Kd for oleoyl-CoA (Table 1). […] Conversely, when His68 was mutated to alanine, binding of oleoyl-CoA by the protein was undetectable. To validate this observation, competitive EMSAs were carried out using the H68A mutant. […] Thus, it is highly likely that His68 is an important residue for oleoyl-CoA binding. To evaluate residues that were expected to interact with CoA, Gln15, Asp16, Ser67, and Asp66 were targeted. Of these, mutants of Asp16 and Ser67 had the greatest effect (Table 1). […] This latter observation was validated using competitive EMSAs (Fig. S4B). […] Taken together, it is likely that Ser67 and Asp16 participate in oleoyl-CoA binding, likely through electrostatic interactions.
(§2) Mutant strand synthesis reactions were performed according to the Agilent QuikChange site-directed mutagenesis protocol. The mftR_pET28a plasmid was used as a template for site-directed mutagenesis studies. Sequence-verified plasmids were transformed into E. coli BL21(DE3) pLysS cells for protein production and purified using the same protocol as wildtype MftR.
(§3) ITC was performed using TA Nano ITC. MftR was loaded in the sample cell at the concentration of 16 and 250 μM acyl-CoAs (C12–C18) loaded in the syringe. To minimize the effect of buffer mismatch, the stock concentration of acyl-CoAs was prepared using ITC buffer (50 mM Hepes, 50 mM NaCl, and pH 7.5), and the pH was adjusted to within 0.05 units. In addition, MftR was buffer exchanged into ITC buffer using a PD-10 column (GE Life Sciences). The volume of the titrant added at each injection into the sample cell was 2.22 μl. The time interval between the successive injections was 180 s. The temperature of the cell was kept at 25 °C. The data obtained were fit by independent one-site model using NanoAnalyze Data Analysis, version 3.8.0, that was provided with the instrument.

MftR D16W = target: T1, MftR D16W (Mycolicibacterium smegmatis, UniProt A0QSB5, D16W); test: ITC binding of oleoyl-CoA to MftR variant; set-up: species or system Mycobacterium smegmatis mc^2155
T1 sequence (A0QSB5 1-200 D16W): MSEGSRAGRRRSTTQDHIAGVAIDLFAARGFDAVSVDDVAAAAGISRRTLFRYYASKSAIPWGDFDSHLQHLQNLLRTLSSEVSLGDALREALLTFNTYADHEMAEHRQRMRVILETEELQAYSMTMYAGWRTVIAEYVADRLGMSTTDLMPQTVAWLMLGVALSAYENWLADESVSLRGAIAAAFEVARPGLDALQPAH
Source text: as §1, §2, §3

MftR H68A = test: ITC binding of oleoyl-CoA to MftR variant; set-up: species or system Mycobacterium smegmatis mc^2155; details: ND = not detected
Source text: as §1, §2, §3

MftR S67A = target: T2, MftR S67A (Mycolicibacterium smegmatis, UniProt A0QSB5, S67A); test: ITC binding of oleoyl-CoA to MftR variant; set-up: species or system Mycobacterium smegmatis mc^2155
T2 sequence (A0QSB5 1-200 S67A): T1 sequence (A0QSB5 1-200 D16W)
Source text: as §1, §2, §3

MftR D66A = target: T3, MftR D66A (Mycolicibacterium smegmatis, UniProt A0QSB5, D66A); test: ITC binding of oleoyl-CoA to MftR variant; set-up: species or system Mycobacterium smegmatis mc^2155
T3 sequence (A0QSB5 1-200 D66A): T1 sequence (A0QSB5 1-200 D16W)
Source text: as §1, §2, §3

MftR S67W [1] = target: T4, MftR S67W (Mycolicibacterium smegmatis, UniProt A0QSB5, S67W); test: ITC binding of oleoyl-CoA to MftR variant; set-up: species or system Mycobacterium smegmatis mc^2155
T4 sequence (A0QSB5 1-200 S67W): T1 sequence (A0QSB5 1-200 D16W)
Source text: as §1, §2, §3

MftR I114A = target: T5, MftR I114A (Mycolicibacterium smegmatis, UniProt A0QSB5, I114A); test: ITC binding of oleoyl-CoA to MftR variant; set-up: species or system Mycobacterium smegmatis mc^2155
T5 sequence (A0QSB5 1-200 I114A): T1 sequence (A0QSB5 1-200 D16W)
Source text: as §1, §2, §3

MftR Q15A = target: T6, MftR Q15A (Mycolicibacterium smegmatis, UniProt A0QSB5, Q15A); test: ITC binding of oleoyl-CoA to MftR variant; set-up: species or system Mycobacterium smegmatis mc^2155
T6 sequence (A0QSB5 1-200 Q15A): T1 sequence (A0QSB5 1-200 D16W)
Source text: as §1, §2, §3

MftR S67W [2] = test: ITC binding of oleoyl-CoA to MftR variant; set-up: species or system Mycobacterium smegmatis mc^2155; details: S67W mutation vs WT, ITC
Source text: as §1, §2, §3

In the case of `CCCCCCCC/C=C\CCCCCCCC(=O)SCCNC(=O)CCNC(=O)[C@H](O)C(C)(C)COP(=O)(O)OP(=O)(O)OC[C@H]1O[C@@H](n2cnc3c(N)ncnc32)[C@H](O)[C@@H]1OP(=O)(O)O` [oleoyl-CoA], the “disruption of the MftR–Omft complex (DNA release)” value (MftR–Omft complex) is reported as “disrupted the MftR–Omft complex”, the Kd (MftR D16R) is reported as “no longer detectable” and the Kd (MftR D16W) is reported as 4.8 ± 0.2 µM. The Kd (MftR H68A) was “undetectable”, the Kd (MftR S67A) was 5.4 ± 0.2 µM and the Kd (MftR D66A) was 1.6 ± 0.1 µM. For the same compound, the Kd (MftR S67W [1]) was 8.3 ± 0.2 µM, the Kd (MftR I114A) was 2.4 ± 0.1 µM and the Kd (MftR Q15A) was 2 ± 0.1 µM. The “increase in the Kd value for oleoyl-CoA” value (MftR S67W [2]) was “eightfold increase”.
